From ChEMBL document CHEMBL1201862, “PubChem BioAssay data set” (2004)
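48-hour exposure; five concentrations; linearly interpolated endpoints. Here, GI50 denotes the concentration required for 50% inhibition of growth.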 Activity calls are given as the source filed them. No stated cut-off is given here; in the data, active = GI50 up to about 1.1 µM and inactive = higher.

Assays:
Assay in all cases: growth of human tumour cells (NCI), 48 h
[1] = test system: HOP-92
[2] = test system: SW-620
[3] = test system: HOP-62
[4] = test system: M14
[5] = test system: SNB-19
[6] = test system: SF-268
[7] = test system: OVCAR-4
[8] = test system: U-251
[9] = test system: MOLT-4
[10] = test system: SF-295
[11] = test system: A498
[12] = test system: UO-31
[13] = test system: SNB-75
[14] = test system: EKVX
[15] = test system: HCC 2998
[16] = test system: NCI-H23
[17] = test system: K562
[18] = test system: SK-MEL-2

Measured: GI50

O/N=C1\C(=C\c2ccc3c(c2)OCCO3)CCCC1C(NO)c1ccc2c(c1)OCCO2 (stereo not given)
inactive: [1] 23.3 µM | [2] 32.2 µM | [3] 22 µM | [4] 17.7 µM | [5] 38.7 µM | [6] 18.2 µM | [7] 30.1 µM | [8] 19.3 µM | [9] 10.1 µM | [10] 31 µM | [11] 16 µM | [12] 26.8 µM | [13] 28.7 µM | [14] 25.2 µM | [15] 22.6 µM

COC(=O)/C(=N/O)C(C(=O)C=C(C)C)C(=O)C(=O)Nc1nc2ccc([N+](=O)[O-])cc2s1 (stereo not given)
inactive: [16] 25.2 µM | [1] 13.1 µM | [2] 33.8 µM | [3] 32.9 µM | [4] 54.7 µM | [5] 67.9 µM | [17] 28.9 µM | [18] 25.8 µM | [6] 28.3 µM | [7] 31.8 µM | [8] 49.5 µM | [9] 23.9 µM | [10] 36.8 µM | [11] 10.5 µM | [12] 26.8 µM | [14] 16.7 µM | [15] 35.6 µM

CC(CC(=O)Nc1ccc(NC(=O)CC(C)/N=N\C(N)=S)cc1)/N=N\C(N)=S (stereo not given)
inactive: [16] > 100 µM | [1] > 100 µM | [3] > 100 µM | [4] > 100 µM | [5] > 100 µM | [17] > 100 µM | [18] > 100 µM | [6] > 100 µM | [7] > 100 µM | [9] > 100 µM | [10] > 100 µM | [11] > 100 µM | [12] > 100 µM | [13] > 100 µM | [14] > 100 µM | [15] > 100 µM

O=C(C#Cc1ccccc1)N1c2ccccc2CC1c1c[nH]c2ccccc12 (stereo not given)
inactive: [16] 12.6 µM | [1] 15.3 µM | [2] 15.3 µM | [3] 8.95 µM | [4] 15 µM | [5] 30.3 µM | [17] 10.7 µM | [18] 12.5 µM | [7] 26.3 µM | [8] 17.5 µM | [9] 9.02 µM | [10] 15.5 µM | [11] 28.9 µM | [12] 23.1 µM | [13] 11.7 µM | [14] 15.4 µM | [15] 17.2 µM

COc1ccccc1NC(=O)C1=C(C)NC(C)=C(C(=O)Nc2ccccc2OC)C1c1cccc2c1OCO2
inactive: [16] > 100 µM | [1] > 100 µM | [2] > 100 µM | [3] > 100 µM | [4] > 100 µM | [5] 91.8 µM | [17] 51.1 µM | [18] 48.2 µM | [6] > 100 µM | [7] > 100 µM | [8] > 100 µM | [9] 20.7 µM | [10] > 100 µM | [11] > 100 µM | [12] 47.4 µM | [13] 14.1 µM | [14] > 100 µM | [15] 85.7 µM

COc1ccc2c3c([nH]c(=O)c2c1C(=O)O)-c1ccccc1CC3
inactive: [16] > 100 µM | [1] > 100 µM | [2] > 100 µM | [3] > 100 µM | [4] > 100 µM | [5] > 100 µM | [17] > 100 µM | [18] > 100 µM | [6] > 100 µM | [7] > 100 µM | [8] > 100 µM | [9] > 100 µM | [10] > 100 µM | [11] > 100 µM | [12] > 100 µM | [13] > 100 µM | [14] 49.7 µM | [15] > 100 µM

OCC1CC2CC1C1(C2)OCCO1 (stereo not given)
inactive: [16] > 100 µM | [1] > 100 µM | [2] > 100 µM | [3] > 100 µM | [4] > 100 µM | [5] > 100 µM | [17] > 100 µM | [18] > 100 µM | [6] > 100 µM | [7] > 100 µM | [8] > 100 µM | [9] > 100 µM | [10] > 100 µM | [11] > 100 µM | [12] > 100 µM | [13] > 100 µM | [14] > 100 µM

NC(=O)C(=Cc1ccc(C(O)P(=O)(O)O)cc1)C(N)=O (stereo not given)
inactive: [16] > 100 µM | [1] > 100 µM | [2] > 100 µM | [3] > 100 µM | [4] > 100 µM | [5] > 100 µM | [17] > 100 µM | [18] > 100 µM | [7] > 100 µM | [8] > 100 µM | [9] > 100 µM | [10] > 100 µM | [11] > 100 µM | [12] > 100 µM | [13] > 100 µM | [14] > 100 µM | [15] > 100 µM
